Where two headings read alike, the source gives them in different places.
Experiments:
KRas G12C = KRas G12C (Homo sapiens, UniProt P01116, C118S/C51S/C80L/G12C); assay: KRas G12C Modification Assay (LCMS detection of covalent adduct); type: binding; settings: normalized percent of control; tested at 5 μM concentration for 3 hours
In short: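 Covalent modification was read by reverse-phase LC/MS of intact protein after compound exposure, each reaction stopped at its time point with 25 mM acetic acid. Unmodified-protein signal, taken as percent of total, was normalised to untreated protein and reported as POC.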

[1] = system: NCI-H358 cells (express KRas G12C), Phospho-ERK; assay: Cellular inhibition of KRas G12C: Phospho-ERK in NCI-H358 cells; type: cell-based; settings: pERK(Thr202/Tyr204) normalized with GAPDH, NCI-H358 cells, 3 hours, read-out: IC50
In short: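 IC50 derived by 4-parameter fit of GAPDH-normalized pERK(Thr202/Tyr204) signal, as percent of DMSO control. Signal came from in-cell immunodetection with infrared secondaries after 3 h compound exposure of KRas G12C NCI-H358 cells at 0.5% DMSO.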

| POC (KRas G12C) | Structure (SMILES) | IC50 [1] [nM] | IC50 ([1]; Homo sapiens, NCI-H358, 3 h) [nM] | IC50 ([1]; Homo sapiens) [nM] |
| --- | --- | --- | --- | --- |
| C (“C”>50% POC) | C=CC(=O)N1CCN(c2nc(OC[C@@H]3CCCN3CCOC)nc3c2CCN(c2cccc4ccccc24)C3)CC1CC#N (stereo partly drawn) [Example 380, 2-(1-acryloyl-4-(2-(((S)-1-(2-methoxyethyl)pyrrolidin-2-yl)methoxy)-7-(naphthalen-1-yl)-5,6,7,8-tetrahydropyrido[3,4-d]pyrimidin-4-yl)piperazin-2-yl)acetonitrile] | 0.1 to 1000 | – | – |
| C (“C”>50% POC) | C=CC(=O)N1CCN(c2nc(OC[C@@H]3C[C@@H](OC)CN3C)nc3c2CCN(c2cccc4ccccc24)C3)CC1CC#N (stereo partly drawn) [Example 381, 2-(1-acryloyl-4-(2-(((2S,4R)-4-methoxy-1-methylpyrrolidin-2-yl)methoxy)-7-(naphthalen-1-yl)-5,6,7,8-tetrahydropyrido[3,4-d]pyrimidin-4-yl)piperazin-2-yl)acetonitrile] | 0.1 to 1000 | – | – |
| C (“C”>50% POC) | C=CC(=O)N1CCN(c2nc(OC[C@@H]3CCCN3C)nc3c2CCN(c2cncc(F)c2C(F)(F)F)C3)C[C@@H]1CC#N [Example 383, 2-((S)-1-acryloyl-4-(7-(5-fluoro-4-(trifluoromethyl)pyridin-3-yl)-2-(((S)-1-methylpyrrolidin-2-yl)methoxy)-5,6,7,8-tetrahydropyrido[3,4-d]pyrimidin-4-yl)piperazin-2-yl)acetonitrile] | – | 0.1 to 1000 | – |
| C (“C”>50% POC) | C=CC(=O)N1CCN(c2nc(OC[C@@H]3C[C@@H](F)CN3C)nc3c2CCN(c2cncc(F)c2C(F)(F)F)C3)C[C@@H]1CC#N [Example 384, 2-((S)-1-acryloyl-4-(2-(((2S,4R)-4-fluoro-1-methylpyrrolidin-2-yl)methoxy)-7-(5-fluoro-4-(trifluoromethyl)pyridin-3-yl)-5,6,7,8-tetrahydropyrido[3,4-d]pyrimidin-4-yl)piperazin-2-yl)acetonitrile] | – | – | 0.1 to 1000 |
| C (“C”>50% POC) | C=CC(=O)N1CCN(c2nc(OC[C@@H]3CCCN3C)nc3c2CCN(c2cncc(Cl)c2C(F)(F)F)C3)C[C@@H]1CC#N [Example 385, 2-((S)-1-acryloyl-4-(7-(5-chloro-4-(trifluoromethyl)pyridin-3-yl)-2-(((S)-1-methylpyrrolidin-2-yl)methoxy)-5,6,7,8-tetrahydropyrido[3,4-d]pyrimidin-4-yl)piperazin-2-yl)acetonitrile] | – | 0.1 to 1000 | – |
| C (“C”>50% POC) | C=CC(=O)N1CCN(c2nc(OC[C@@H]3C[C@@H](F)CN3C(C)C)nc3c2CCN(c2cncc(F)c2C(F)(F)F)C3)C[C@@H]1CC#N [Example 386, 2-((S)-1-acryloyl-4-(2-(((2S,4R)-4-fluoro-1-isopropylpyrrolidin-2-yl)methoxy)-7-(5-fluoro-4-(trifluoromethyl)pyridin-3-yl)-5,6,7,8-tetrahydropyrido[3,4-d]pyrimidin-4-yl)piperazin-2-yl)acetonitrile] | – | – | 0.1 to 1000 |
| C (“C”>50% POC) | C=CC(=O)N1CCN(c2nc(OC[C@@H]3CCCN3C)nc3c2CCN(c2cncc(Cl)c2C)C3)C[C@@H]1CC#N [Example 387, 2-((S)-1-acryloyl-4-(7-(5-chloro-4-methylpyridin-3-yl)-2-(((S)-1-methylpyrrolidin-2-yl)methoxy)-5,6,7,8-tetrahydropyrido[3,4-d]pyrimidin-4-yl)piperazin-2-yl)acetonitrile] | – | 0.1 to 1000 | – |
| C (“C”>50% POC) | C=CC(=O)N1CCN(c2nc(OC[C@@H]3CCCN3C)nc3c2CCN(c2cccc(F)c2C)C3)C[C@@H]1CC#N [Example 388, 2-((S)-1-acryloyl-4-(7-(3-fluoro-2-methylphenyl)-2-(((S)-1-methylpyrrolidin-2-yl)methoxy)-5,6,7,8-tetrahydropyrido[3,4-d]pyrimidin-4-yl)piperazin-2-yl)acetonitrile] | – | 0.1 to 1000 | – |
| C (“C”>50% POC) | CC#CC(=O)N1CCN(c2nc(OC[C@@H]3CCCN3C)nc3c2CCN(c2cccc(C)c2C)C3)C[C@@H]1CC#N [Example 389, 2-((S)-1-(but-2-ynoyl)-4-(7-(2,3-dimethylphenyl)-2-(((S)-1-methylpyrrolidin-2-yl)methoxy)-5,6,7,8-tetrahydropyrido[3,4-d]pyrimidin-4-yl)piperazin-2-yl)acetonitrile] | – | > 1000 | – |
| C (“C”>50% POC) | C=CC(=O)N1CCN(c2nc(OC[C@@H]3[C@@H](O)CCN3C)nc3c2CCN(c2cccc4ccccc24)C3)C[C@@H]1CC#N [Example 390, 2-((S)-1-acryloyl-4-(2-(((2R,3S)-3-hydroxy-1-methylpyrrolidin-2-yl)methoxy)-7-(naphthalen-1-yl)-5,6,7,8-tetrahydropyrido[3,4-d]pyrimidin-4-yl)piperazin-2-yl)acetonitrile] | – | 0.1 to 1000 | – |
| C (“C”>50% POC) | CC#CC(=O)N1CCN(c2nc(OC[C@@H]3CCCN3C)nc3c2CCN(c2cccc4cccc(Cl)c24)C3)C[C@@H]1CC#N [Example 391, 2-((S)-1-(but-2-ynoyl)-4-(7-(8-chloronaphthalen-1-yl)-2-(((S)-1-methylpyrrolidin-2-yl)methoxy)-5,6,7,8-tetrahydropyrido[3,4-d]pyrimidin-4-yl)piperazin-2-yl)acetonitrile] | – | 0.1 to 1000 | – |
| C (“C”>50% POC) | C=CC(=O)N1CCN(c2nc(OC[C@@H]3CCCN3C)nc3c2CCN(c2cccc(C)c2C)C3)C[C@@H]1CC#N [Example 393, 2-((S)-1-acryloyl-4-(7-(2,3-dimethylphenyl)-2-(((S)-1-methylpyrrolidin-2-yl)methoxy)-5,6,7,8-tetrahydropyrido[3,4-d]pyrimidin-4-yl)piperazin-2-yl)acetonitrile] | – | 0.1 to 1000 | – |
| C (“C”>50% POC) | C=CC(=O)N1CCN(c2nc(OC[C@@H]3CCCN3CC3CC3)nc3c2CCN(c2cccc4ccccc24)C3)CC1CC#N (stereo partly drawn) [Example 395, 2-(1-acryloyl-4-(2-(((S)-1-(cyclopropylmethyl)pyrrolidin-2-yl)methoxy)-7-(naphthalen-1-yl)-5,6,7,8-tetrahydropyrido[3,4-d]pyrimidin-4-yl)piperazin-2-yl)acetonitrile] | – | 0.1 to 1000 | – |
| C (“C”>50% POC) | C=CC(=O)N1CCN(c2nc(OCC(C)(C)N(C)C)nc3c2CCN(c2cccc4ccccc24)C3)CC1CC#N (stereo not drawn) [Example 396, 2-(1-acryloyl-4-(2-(2-(dimethylamino)-2-methylpropoxy)-7-(naphthalen-1-yl)-5,6,7,8-tetrahydropyrido[3,4-d]pyrimidin-4-yl)piperazin-2-yl)acetonitrile] | 0.1 to 1000 | – | – |
| C (“C”>50% POC) | C=CC(=O)N1CCN(c2nc(OC[C@@H]3CCCN3CC(=O)N(C)C)nc3c2CCN(c2cccc4ccccc24)C3)CC1CC#N (stereo partly drawn) [Example 397, 2-((2S)-2-(((4-(4-acryloyl-3-(cyanomethyl)piperazin-1-yl)-7-(naphthalen-1-yl)-5,6,7,8-tetrahydropyrido[3,4-d]pyrimidin-2-yl)oxy)methyl)pyrrolidin-1-yl)-N,N-dimethylacetamide] | – | 0.1 to 1000 | – |
| C (“C”>50% POC) | C=CC(=O)N1CCN(c2nc(OC[C@@H]3CCCN3CC)nc3c2CCN(c2cccc4ccccc24)C3)C[C@@H]1CC#N [Example 399, 2-((S)-1-acryloyl-4-(2-(((S)-1-ethylpyrrolidin-2-yl)methoxy)-7-(naphthalen-1-yl)-5,6,7,8-tetrahydropyrido[3,4-d]pyrimidin-4-yl)piperazin-2-yl)acetonitrile] | – | 0.1 to 1000 | – |
| C (“C”>50% POC) | CCN1CCC[C@H]1COc1nc2c(c(N3CCN(C(=O)/C=C/CN(C)C)[C@@H](CC#N)C3)n1)CCN(c1cccc3ccccc13)C2 [Example 400, 2-((S)-1-((E)-4-(dimethylamino)but-2-enoyl)-4-(2-(((S)-1-ethylpyrrolidin-2-yl)methoxy)-7-(naphthalen-1-yl)-5,6,7,8-tetrahydropyrido[3,4-d]pyrimidin-4-yl)piperazin-2-yl)acetonitrile] | – | 0.1 to 1000 | – |
| C (“C”>50% POC) | C=CC(=O)N1CCN(c2nc(OC[C@@H]3CCCN3CC(=O)N(C)C)nc3c2CCN(c2cccc4ccccc24)C3)C[C@@H]1CC#N [Example 401, 2-((S)-2-(((4-((S)-4-acryloyl-3-(cyanomethyl)piperazin-1-yl)-7-(naphthalen-1-yl)-5,6,7,8-tetrahydropyrido[3,4-d]pyrimidin-2-yl)oxy)methyl)pyrrolidin-1-yl)-N,N-dimethylacetamide] | – | 0.1 to 1000 | – |
| C (“C”>50% POC) | C=CC(=O)N1CCN(c2nc(N3CC[C@H](N(C)C)C3)nc3c2CCN(c2cccc4ccccc24)C3)C[C@@H]1CC#N [Example 402] | – | 0.1 to 1000 | – |
| C (“C”>50% POC) | Cc1cccc(N2CCc3c(nc(OC[C@@H]4CCCN4C)nc3N3CCN(C(=O)/C=C/CN(C)C)[C@@H](CC#N)C3)C2)c1C [Example 403, 2-((S)-1-((E)-4-(dimethylamino)but-2-enoyl)-4-(7-(2,3-dimethylphenyl)-2-(((S)-1-methylpyrrolidin-2-yl)methoxy)-5,6,7,8-tetrahydropyrido[3,4-d]pyrimidin-4-yl)piperazin-2-yl)acetonitrile] | – | 0.1 to 1000 | – |

| Structure (SMILES) | POC (KRas G12C) | IC50 [1] [nM] | IC50 ([1]; Homo sapiens, NCI-H358, 3 h) [nM] | IC50 ([1]; Homo sapiens) [nM] |
| --- | --- | --- | --- | --- |
| C=CC(=O)N1CCN(c2nc(OC[C@]3(C)CCCN3C)nc3c2CCN(c2cccc4ccccc24)C3)CC1CC#N (stereo partly drawn) [Example 394, 2-(1-acryloyl-4-(2-(((S)-1,2-dimethylpyrrolidin-2-yl)methoxy)-7-(naphthalen-1-yl)-5,6,7,8-tetrahydropyrido[3,4-d]pyrimidin-4-yl)piperazin-2-yl)acetonitrile] | C (“C”>50% POC) | – | 0.1 to 1000 | – |
